Assay results as given in ChEMBL document CHEMBL5620381, “Design, synthesis and antitubercular activity of novel N-(amino)piperazinyl benzothiazinones with improved safety” (Eur J Med Chem, 2023).
≈ marks a conversion by molar mass, not a printed value.

Assays:
[1] = test system: Mycobacterium tuberculosis; experiment: Antitubercular activity against Mycobacterium tuberculosis H37Rv […] incubated for 8 days by MABA; assay type: functional; settings: 192 h, time 8 day
[2] = Cytotoxicity against human THP-1 cells incubated for 48 hrs by MTS/PMS assay; assay type: toxicity, cell-based
[3] = Selectivity index, ratio of CC50 for human THP-1 cells to MIC for Mycobacterium tuberculosis H37Rv […]; assay type: toxicity; settings: read-out: Selectivity Index
hERG (KCNH2) = hERG (KCNH2) (Homo sapiens, UniProt Q12809); experiment: Inhibition of human ERG expressed in HEK293 cells at 10 uM by whole cell patch clamp assay relative to control; assay type: toxicity, cell-based; settings: HEK293 cells expressing human ERG
Sequence of hERG (KCNH2) (Q12809 whole entry): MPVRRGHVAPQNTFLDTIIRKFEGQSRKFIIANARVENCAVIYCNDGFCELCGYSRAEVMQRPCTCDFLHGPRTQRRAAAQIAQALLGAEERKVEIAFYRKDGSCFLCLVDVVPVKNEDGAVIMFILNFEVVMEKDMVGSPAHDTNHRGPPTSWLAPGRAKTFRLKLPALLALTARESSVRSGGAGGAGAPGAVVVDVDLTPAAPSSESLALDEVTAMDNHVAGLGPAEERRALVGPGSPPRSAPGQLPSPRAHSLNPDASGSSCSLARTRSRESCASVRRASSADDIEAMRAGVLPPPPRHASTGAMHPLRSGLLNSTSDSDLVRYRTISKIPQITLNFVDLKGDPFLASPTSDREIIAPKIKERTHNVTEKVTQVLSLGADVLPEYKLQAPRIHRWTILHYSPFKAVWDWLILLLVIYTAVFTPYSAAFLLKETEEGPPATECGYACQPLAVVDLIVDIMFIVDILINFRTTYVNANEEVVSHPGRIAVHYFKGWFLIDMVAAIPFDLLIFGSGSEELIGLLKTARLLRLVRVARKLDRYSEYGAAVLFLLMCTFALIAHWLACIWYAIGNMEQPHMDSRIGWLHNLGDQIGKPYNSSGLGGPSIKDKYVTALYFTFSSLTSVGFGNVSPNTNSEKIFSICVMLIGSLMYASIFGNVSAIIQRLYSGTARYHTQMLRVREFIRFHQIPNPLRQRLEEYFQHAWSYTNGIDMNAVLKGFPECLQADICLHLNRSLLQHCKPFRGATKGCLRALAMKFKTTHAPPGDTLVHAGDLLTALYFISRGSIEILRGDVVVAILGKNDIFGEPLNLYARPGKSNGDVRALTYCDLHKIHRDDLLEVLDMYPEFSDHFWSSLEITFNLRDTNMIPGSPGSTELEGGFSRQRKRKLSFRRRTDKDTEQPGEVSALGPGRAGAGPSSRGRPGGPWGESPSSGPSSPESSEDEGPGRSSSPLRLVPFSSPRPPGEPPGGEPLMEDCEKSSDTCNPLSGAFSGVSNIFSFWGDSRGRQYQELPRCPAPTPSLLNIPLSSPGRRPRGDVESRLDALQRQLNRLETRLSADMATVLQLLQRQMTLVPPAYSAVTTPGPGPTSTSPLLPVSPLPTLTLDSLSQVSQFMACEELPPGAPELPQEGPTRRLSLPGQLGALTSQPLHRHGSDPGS

[4] = Toxicity in ICR mouse assessed as increase in body weight at 500 mg/kg, po administered as single dose and measured for 7 days; assay type: organism-based; settings: in vivo, 168 h, time 7 day
[5] = Toxicity in ICR mouse assessed as animal death at 500 mg/kg, po administered as single dose and measured for 7 days; assay type: organism-based; settings: in vivo, 168 h, time 7 day
[6] = Toxicity in po dosed ICR mouse administered as single dose and measured for 7 days; assay type: organism-based; settings: in vivo, time 7 day
[7] = Toxicity in ICR mouse assessed as depression at 500 mg/kg, po administered as single dose and measured on next day; assay type: organism-based; settings: in vivo, 24 h, time 1 day
[8] = Toxicity in ICR mouse assessed as depression at 500 mg/kg, po administered as single dose and measured after 3 to 7 days; assay type: organism-based; settings: in vivo, time 3-7 day
[9] = Half-life in ICR mouse at 25 mg/kg, po measured upto 24 hrs by HPLC analysis; assay type: ADME, organism-based; settings: in vivo
[10] = Tmax in ICR mouse at 25 mg/kg, po measured upto 24 hrs by HPLC analysis; assay type: ADME, organism-based; settings: in vivo
[11] = Cmax in ICR mouse at 25 mg/kg, po measured upto 24 hrs by HPLC analysis; assay type: ADME, organism-based; settings: in vivo
[12] = AUC(0 to infinity) in ICR mouse at 25 mg/kg, po measured upto 24 hrs by HPLC analysis; assay type: ADME, organism-based; settings: in vivo
[13] = Mean residence time in ICR mouse at 25 mg/kg, po measured upto 24 hrs by HPLC analysis; assay type: ADME, organism-based; settings: in vivo

SMILES | MIC [1] [µg/mL] | CC50 at 48 h [2] [µg/mL] | selectivity ratio [3] | inhibition at 10 µM (hERG (KCNH2)) [%] | also measured
CN(CC1CCC(F)(F)CC1)N1CCN(c2nc(=O)c3cc(C(F)(F)F)cc([N+](=O)[O-])c3s2)CC1 | < 0.001 | > 64 | > 4200 | – | –
CC1CCC(N(C)N2CCN(c3nc(=O)c4cc(C(F)(F)F)cc([N+](=O)[O-])c4s3)CC2)CC1 (centres undefined) | < 0.001 | > 64 | > 4200 | 32.7 | –
CN(C1CCCCC1)N1CCN(c2nc(=O)c3cc(C(F)(F)F)cc([N+](=O)[O-])c3s2)CC1 | < 0.001 | > 64 | > 4200 | 27.3 | –
CN(C1CCCCCCC1)N1CCN(c2nc(=O)c3cc(C(F)(F)F)cc([N+](=O)[O-])c3s2)CC1 | < 0.001 | > 64 | > 4200 | – | –
CN(C1CCC(C)(C)CC1)N1CCN(c2nc(=O)c3cc(C(F)(F)F)cc([N+](=O)[O-])c3s2)CC1(C)C | < 0.001 | > 64 | > 4200 | 18.1 | Activity [4]: Toxic; Activity [5]: Non-Toxic; LD50 at 168 h [6]: > 500 mg/kg; Activity [7]: Toxic; Activity [8]: Non-Toxic
CON=C1CCC(N(C)N2CCN(c3nc(=O)c4cc(C(F)(F)F)cc([N+](=O)[O-])c4s3)CC2C)CC1 (centres undefined) | 0.0143 (≈ 0.0271 µM) | 12.3 (≈ 23.3 µM) | > 4200 | 23.1 | –
CN(C1CCC(F)(F)CC1)N1CCN(c2nc(=O)c3cc(C(F)(F)F)cc([N+](=O)[O-])c3s2)CC1 | < 0.001 | > 64 | > 4200 | – | –
CC1CN(c2nc(=O)c3cc(C(F)(F)F)cc([N+](=O)[O-])c3s2)CCN1N(C)C1CCCCC1 (centres undefined) | < 0.001 | > 64 | > 4200 | – | –
O=c1nc(N2CCN(NC3CCCCCCC3)CC2)sc2c([N+](=O)[O-])cc(C(F)(F)F)cc12 | < 0.001 | 46.9 (≈ 96.7 µM) | > 4200 | – | –
NNC(=O)c1ccncc1 [ISONIAZID] | 0.0374 (≈ 0.273 µM) | > 64 | – | – | –
CC1(C)CCC(NN2CCN(c3nc(=O)c4cc(C(F)(F)F)cc([N+](=O)[O-])c4s3)CC2)CC1 | < 0.001 | 58.1 (≈ 120 µM) | > 4200 | 19.9 | Activity [4]: Toxic; Activity [5]: Non-Toxic; LD50 at 168 h [6]: > 500 mg/kg; half-life [9]: 1.23 h; Tmax [10]: 0.25 h; Cmax [11]: 755 ng/mL; AUC(0-inf) [12]: 971 ng·h/mL; MRT [13]: 1.63 h
O=c1nc(N2CCN(NC3CCC(F)(F)CC3)CC2)sc2c([N+](=O)[O-])cc(C(F)(F)F)cc12 | 0.00311 (≈ 0.0063 µM) | > 64 | > 4200 | 46.8 | –
CN(C1CCC2(CCCCC2)CC1)N1CCN(c2nc(=O)c3cc(C(F)(F)F)cc([N+](=O)[O-])c3s2)CC1 | < 0.001 | 51.9 (≈ 96.2 µM) | > 4200 | – | –
CC1CCC(NN2CCN(c3nc(=O)c4cc(C(F)(F)F)cc([N+](=O)[O-])c4s3)CC2)CC1 (centres undefined) | < 0.001 | > 64 | > 4200 | – | –
CCON=C1CCC(N(C)N2CCN(c3nc(=O)c4cc(C(F)(F)F)cc([N+](=O)[O-])c4s3)CC2)CC1 (centres undefined) | 0.0118 (≈ 0.0223 µM) | 50.1 (≈ 94.8 µM) | > 4200 | – | –
CON=C1CCC(N(C)N2CCN(c3nc(=O)c4cc(C(F)(F)F)cc([N+](=O)[O-])c4s3)CC2)CC1 (centres undefined) | < 0.001 | > 64 | > 4200 | – | –
CON=C1CCC(N(C)N2CCN(c3nc(=O)c4cc(C(F)(F)F)cc([N+](=O)[O-])c4s3)CC2(C)C)CC1 (centres undefined) | 0.0631 (≈ 0.116 µM) | 4.91 (≈ 9.05 µM) | > 4200 | – | –
CC1CC(N(C)N2CCN(c3nc(=O)c4cc(C(F)(F)F)cc([N+](=O)[O-])c4s3)CC2)CC(C)(C)C1 (centres undefined) | < 0.001 | > 64 | > 4200 | – | –
CN(C1CCC(=NOC(C)(C)C)CC1)N1CCN(c2nc(=O)c3cc(C(F)(F)F)cc([N+](=O)[O-])c3s2)CC1 (centres undefined) | 0.00721 (≈ 0.013 µM) | > 64 | > 4200 | – | –
CN(C1CCC(C)(C)CC1)N1CCN(c2nc(=O)c3cc(C(F)(F)F)cc([N+](=O)[O-])c3s2)CC1 | < 0.001 | > 64 | > 4200 | 6.1 | Activity [4]: Toxic; Activity [5]: Non-Toxic; LD50 at 168 h [6]: > 500 mg/kg; half-life [9]: 5.07 h; Tmax [10]: 0.5 h; Cmax [11]: 501 ng/mL; AUC(0-inf) [12]: 1190 ng·h/mL; MRT [13]: 3.91 h
CN(C1C2CC3CC(C2)CC1C3)N1CCN(c2nc(=O)c3cc(C(F)(F)F)cc([N+](=O)[O-])c3s2)CC1 (centres undefined) | 0.0025 (≈ 0.00477 µM) | > 64 | > 4200 | – | –
CN(C1CCCCC1)N1CCN(c2nc(=O)c3cc(C(F)(F)F)cc([N+](=O)[O-])c3s2)CC1(C)C | 0.0015 (≈ 0.003 µM) | > 64 | > 4200 | 45.7 | –
CC1CCC(C)C(N(C)N2CCN(c3nc(=O)c4cc(C(F)(F)F)cc([N+](=O)[O-])c4s3)CC2)C1 (centres undefined) | < 0.001 | > 64 | > 4200 | – | –
O=c1nc(N2CCN(CC3CCCCC3)CC2)sc2c([N+](=O)[O-])cc(C(F)(F)F)cc12 [MACOZINONE] | < 0.001 | > 64 | – | – | –
CO[C@H]1/C=C/O[C@@]2(C)Oc3c(C)c(O)c4c(O)c(c(/C=N/N5CCN(C)CC5)c(O)c4c3C2=O)NC(=O)/C(C)=C\C=C\[C@H](C)[C@H](O)[C@@H](C)[C@@H](O)[C@@H](C)[C@H](OC(C)=O)[C@@H]1C [RIFAMPIN] | 0.019 (≈ 0.0231 µM) | > 64 | – | – | –
CC1CCCCC1N(C)N1CCN(c2nc(=O)c3cc(C(F)(F)F)cc([N+](=O)[O-])c3s2)CC1 (centres undefined) | 0.00135 (≈ 0.00278 µM) | > 64 | > 4200 | – | –
CC1CN(c2nc(=O)c3cc(C(F)(F)F)cc([N+](=O)[O-])c3s2)CCN1N(C)C1CCC(C)(C)CC1 (centres undefined) | < 0.001 | > 64 | > 4200 | 35.5 | Activity [4]: Toxic; Activity [5]: Non-Toxic; LD50 at 168 h [6]: > 500 mg/kg; Activity [7]: Toxic; Activity [8]: Non-Toxic
O=c1nc(N2CCN(NC3CCCCC3)CC2)sc2c([N+](=O)[O-])cc(C(F)(F)F)cc12 | < 0.001 | > 64 | > 4200 | – | –
CC1CCCCC1NN1CCN(c2nc(=O)c3cc(C(F)(F)F)cc([N+](=O)[O-])c3s2)CC1 (centres undefined) | 0.0014 (≈ 0.00297 µM) | 48.7 (≈ 103 µM) | > 4200 | – | –
